For this assay, the target named is IRE1α (Homo sapiens (Human), UniProt O75460, D688N). As to the kind of experiment: IRE1α TR-FRET competition binding assay (IRE1α HTRF). The settings on record: TR-FRET competition binding to kinase domain of IRE1α. How it is done: IRE1α TR-FRET Competition Binding Assay. The affinity of compound binding to the kinase domain of IRE1α was determined using a time-resolved fluorescence resonance energy transfer (TR-FRET) competition assay.
The purified protein (final concentration 0.25 nM) was pre-incubated with anti-His Europium labeled antibody (Life Technologies PV5596, final concentration 2 nM) for one hour at 4° C. in TR-FRET Assay Buffer (50 mM HEPES, pH 7.5, 10 mM MgCl2, 0.083 mM Brij 35, 1 mM DTT, and 0.1% bovine gamma globulin) prior to addition to test compounds. An Alexa fluor 647-labeled probe based on an ATP competitive inhibitor was added to a final concentration of 2 nM. Reactions were carried out for one hour at room temperature in a final volume of 20 μL in 384 well white ProxiPlates (Perkin Elmer 6008289). Binding of the probe to the IRE1α protein was detected in an Envision instrument (PerkinElmer) equipped with a TRF laser option and a LANCE/Delfia Dual/Bias D400/D630 mirror (Ex 347 nm, 1st Em 665 nm, 2nd Em 615 nm).

The structures appear in SMILES notation. Structures can show the parent of a compound that is named as a salt.

Sequence of IRE1α (O75460 547-977 D688N): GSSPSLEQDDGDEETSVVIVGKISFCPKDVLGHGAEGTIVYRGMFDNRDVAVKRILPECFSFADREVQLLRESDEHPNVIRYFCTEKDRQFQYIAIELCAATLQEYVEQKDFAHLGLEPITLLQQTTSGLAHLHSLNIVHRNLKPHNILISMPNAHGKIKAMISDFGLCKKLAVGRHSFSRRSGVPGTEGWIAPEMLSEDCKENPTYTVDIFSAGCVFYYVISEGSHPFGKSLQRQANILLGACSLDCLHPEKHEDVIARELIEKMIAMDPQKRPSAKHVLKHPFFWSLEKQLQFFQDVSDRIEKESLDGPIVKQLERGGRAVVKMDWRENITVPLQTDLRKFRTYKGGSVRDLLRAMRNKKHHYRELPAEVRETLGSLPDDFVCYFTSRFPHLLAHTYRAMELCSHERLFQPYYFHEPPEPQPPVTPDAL

Take `CC(C)n1c(=O)c(-c2ccc(NS(=O)(=O)CCC(C)(F)F)c(F)c2)nc2cnc(N[C@@H]3CNC[C@@H](F)C3)nc21` [Compound 84, 3,3-Difluoro-N-[2-fluoro-4-[2-[[(3S,5S)-5-fluoro-3-piperidyl]amino]-8-isopropyl-7-oxo-pteridin-6-yl]phenyl]butane-1-sulfonamide]: the IC50 worked out at 0.4 nM.
Turning to `CC(C)n1c(=O)c(-c2ccc(NS(=O)(=O)CCC(F)(F)F)c(F)c2)cc2cnc(N[C@H]3CC[C@H](N4CC5(COC5)C4)CC3)nc21` [Compound 212, N-(4-(2-(((1,4-trans)-4-(2-Oxa-6-azaspiro[3.3]heptan-6-yl)cyclohexyl)amino)-8-isopropyl-7-oxo-7,8-dihydropyrido[2,3-d]pyrimidin-6-yl)-2-fluorophenyl)-3,3,3-trifluoropropane-1-sulfonamide], the IC50 is 0.24 nM.
For `Cc1cccc(S(=O)(=O)Nc2ccc(-c3cc4cnc(N[C@H]5CC[C@H](N(C)C)CC5)nc4n(C(C)C)c3=O)c(C)n2)c1F` [Compound 137, N-(5-(2-(((1r,4r)-4-(Dimethylamino)cyclohexyl)amino)-8-isopropyl-7-oxo-7,8-dihydropyrido[2,3-d]pyrimidin-6-yl)-6-methylpyridin-2-yl)-2-fluoro-3-methylbenzenesulfonamide], the half-maximal inhibitory concentration (IC50) was 0.48 nM.
The compound `CCn1c(=O)c(-c2cc(F)c(NS(=O)(=O)Cc3cccc(C(F)(F)F)c3)c(F)c2F)cc2cnc(N[C@@H]3CNC[C@@H](F)C3)nc21` [Compound 39, N-(4-(8-Ethyl-2-(((3S,5S)-5-fluoropiperidin-3-yl)amino)-7-oxo-7,8-dihydropyrido[2,3-d]pyrimidin-6-yl)-2,3,6-trifluorophenyl)-1-(3-(trifluoromethyl)phenyl)methanesulfonamide] gave an IC50 of 0.4 nM.
The compound `CC(C)n1c(=O)c(-c2ccc(NS(=O)(=O)CC3CCC3(F)F)c(F)c2)cc2cnc(N[C@H]3CC[C@H](N(C)C)CC3)nc21` (single isomer, unassigned) [Compound 153B, 1-(2,2-Difluorocyclobutyl)-N-(4-(2-(((1r,4r)-4-(dimethylamino)cyclohexyl)amino)-8-isopropyl-7-oxo-7,8-dihydropyrido[2,3-d]pyrimidin-6-yl)-2-fluorophenyl)methanesulfonamide] showed an IC50 of 0.16 nM.
Turning to `CC(C)n1c(=O)c(-c2ccc(NS(=O)(=O)C3CCC3)c(F)c2)nc2cnc(N[C@H]3CC[C@H](N(C)C)CC3)nc21` [Example 276, N-[4-[2-[[4-(Dimethylamino)cyclohexyl]amino]-8-isopropyl-7-oxo-pteridin-6-yl]-2-fluoro-phenyl]cyclobutanesulfonamide], the IC50 was 0.9 nM.
The compound `CC(C)n1c(=O)c(-c2ccc(NS(=O)(=O)CC3CCC3(F)F)c(F)c2)cc2cnc(N[C@H]3CC[C@H](N(C)C)CC3)nc21` (single isomer, unassigned) [Compound 153A, 1-(2,2-Difluorocyclobutyl)-N-(4-(2-(((1r,4r)-4-(dimethylamino)cyclohexyl)amino)-8-isopropyl-7-oxo-7,8-dihydropyrido[2,3-d]pyrimidin-6-yl)-2-fluorophenyl)methanesulfonamide] yielded an IC50 of 0.21 nM.
Regarding `CC(C)n1c(=O)c(-c2cc(F)c(NS(=O)(=O)Cc3ccccc3)c(F)c2)cc2cnc(N[C@H]3CC[C@H](N(C)C)CC3)nc21` [Compound 117, N-(4-(2-(((1r,4r)-4-(Dimethylamino)cyclohexyl)amino)-8-isopropyl-7-oxo-7,8-dihydropyrido[2,3-d]pyrimidin-6-yl)-2,6-difluorophenyl)-1-phenylmethanesulfonamide], the IC50 was 0.18 nM.
On to `O=c1c(-c2ccc(NS(=O)(=O)Cc3ccccc3)c(F)c2F)cc2cnc(N[C@@H]3CNC[C@@H](F)C3)nc2n1CC1CC1` [Compound 52, N-(4-(8-(cyclopropylmethyl)-2-(((3S,5S)-5-fluoropiperidin-3-yl)amino)-7-oxo-7,8-dihydropyrido[2,3-d]pyrimidin-6-yl)-2,3-difluorophenyl)-1-phenylmethanesulfonamide trifluoroacetate salt], for which the IC50 is 0.8 nM.
Take `CC(C)n1c(=O)c(-c2ccc(NS(=O)(=O)CCC(F)(F)F)c(F)c2)cc2cnc(NC3CCC(O)C(N(C)C)C3)nc21` (stereo not shown) [Example 225, N-(4-(2-((3-(Dimethylamino)-4-hydroxycyclohexyl)amino)-8-isopropyl-7-oxo-7,8-dihydropyrido[2,3-d]pyrimidin-6-yl)-2-fluorophenyl)-3,3,3-trifluoropropane-1-sulfonamide]: the IC50 was determined as 5.4 nM.
`Cc1cc(-c2nc3cnc(N[C@@H]4CNC[C@@H](F)C4)nc3n(C(C)C)c2=O)cc(F)c1NS(=O)(=O)Cc1ccccc1` [Compound 72, N-[2-Fluoro-4-[2-[[(3S,5S)-5-fluoro-3-piperidyl]amino]-8-isopropyl-7-oxo-pteridin-6-yl]-6-methyl-phenyl]-1-phenyl-methanesulfonamide] came in with an IC50 of 0.5 nM.
`CC(C)n1c(=O)c(-c2cc(F)c(NS(=O)(=O)Cc3ccccc3)c(F)c2)nc2cnc(N[C@H]3CC[C@H](N(C)C)CC3)nc21` [Example 247, N-[4-[2-[[4-(Dimethylamino)cyclohexyl]amino]-8-isopropyl-7-oxo-pteridin-6-yl]-2,6-difluoro-phenyl]-1-phenyl-methanesulfonamide] yielded an IC50 of 0.1 nM.
In turn, `CC(C)n1c(=O)c(-c2c(F)cc(NS(=O)(=O)CCC(F)(F)F)cc2F)nc2cnc(N[C@H]3CC[C@H](N(C)C)CC3)nc21` [Compound 169, N-(4-(2-(((1r,4r)-4-(Dimethylamino)cyclohexyl)amino)-8-isopropyl-7-oxo-7,8-dihydropteridin-6-yl)-3,5-difluorophenyl)-3,3,3-trifluoropropane-1-sulfonamide] displayed an IC50 of 0.69 nM.
In turn, `CC(C)n1c(=O)c(-c2cc(F)c(NS(=O)(=O)Cc3ccc(F)cc3)cc2F)cc2cnc(N[C@H]3CC[C@H](N(C)C)CC3)nc21` [Compound 127, N-(4-(2-(((1r,4r)-4-(Dimethylamino)cyclohexyl)amino)-8-isopropyl-7-oxo-7,8-dihydropyrido[2,3-d]pyrimidin-6-yl)-2,5-difluorophenyl)-1-(4-fluorophenyl)methanesulfonamide] registered an IC50 of 0.11 nM.
In the case of `COc1ccc(CS(=O)(=O)Nc2c(F)cc(-c3cc4cnc(N[C@@H]5CNC[C@@H](F)C5)nc4n(C(C)C)c3=O)c(F)c2F)cc1` [Compound 57, 1-(4-Methoxyphenyl)-N-(2,3,6-trifluoro-4-(2-(((3S,5S)-5-fluoropiperidin-3-yl)amino)-8-isopropyl-7-oxo-7,8-dihydropyrido[2,3-d]pyrimidin-6-yl)phenyl)methanesulfonamide], the IC50 was 0.14 nM.
The figure for `CC(C)n1c(=O)c(-c2cc(F)c(NS(=O)(=O)Cc3ccccc3)c(F)c2F)cc2cnc(N[C@H]3CC[C@H](N)CC3)nc21` [Compound 56, N-(4-(2-(((1r,4r)-4-Aminocyclohexyl)amino)-8-isopropyl-7-oxo-7,8-dihydropyrido[2,3-d]pyrimidin-6-yl)-2,3,6-trifluorophenyl)-1-phenylmethanesulfonamide] is 0.17 nM; for `CC(C)n1c(=O)c(-c2ccc(NS(=O)(=O)C3CC4(CCC4)C3)c(F)c2)nc2cnc(N[C@H]3CC[C@H](N(C)C)CC3)nc21` [Example 277, N-[4-[2-[[4-(Dimethylamino)cyclohexyl]amino]-8-isopropyl-7-oxo-pteridin-6-yl]-2-fluoro-phenyl]spiro[3.3]heptane-2-sulfonamide] it is 0.2 nM.
`CC(C)n1c(=O)c(-c2ccc(NS(=O)(=O)CC3Cc4ccccc4C3)c(F)c2)nc2cnc(N[C@H]3CC[C@H](N(C)C)CC3)nc21` [Example 268, N-[4-[2-[[4-(Dimethylamino)cyclohexyl]amino]-8-isopropyl-7-oxo-pteridin-6-yl]-2-fluoro-phenyl]-1-indan-2-yl-methanesulfonamide] showed an IC50 of 0.1 nM.
With `CC(C)n1c(=O)c(-c2ccc(NS(=O)(=O)CCC(F)(F)F)c(F)c2)cc2cnc(N[C@H]3CC[C@H](N4CCCC4)CC3)nc21` [Compound 199, 3,3,3-Trifluoro-N-(2-fluoro-4-(8-isopropyl-7-oxo-2-(((1,4-trans)-4-(pyrrolidin-1-yl)cyclohexyl)amino)-7,8-dihydropyrido[2,3-d]pyrimidin-6-yl)phenyl)propane-1-sulfonamide], the IC50 came to 0.25 nM.
`CC(C)n1c(=O)c(-c2cc(F)c(NS(=O)(=O)CCC(C)(F)F)c(F)c2F)cc2cnc(N[C@H]3CC[C@H](N(C)C)CC3)nc21` [Compound 33, N-(4-(2-(((1r,4r)-4-(Dimethylamino)cyclohexyl)amino)-8-isopropyl-7-oxo-7,8-dihydropyrido[2,3-d]pyrimidin-6-yl)-2,3,6-trifluorophenyl)-3,3-difluorobutane-1-sulfonamide] showed a half-maximal inhibitory concentration (IC50) of 0.98 nM.
The figure for `CC(C)n1c(=O)c(-c2ccc(NS(=O)(=O)CCC(C)(F)F)c(F)c2)cc2cnc(N[C@H]3CC[C@H](N(C)C)CC3)nc21` [Example 229, N-(4-(2-(((1r,4r)-4-(Dimethylamino)cyclohexyl)amino)-8-isopropyl-7-oxo-7,8-dihydropyrido[2,3-d]pyrimidin-6-yl)-2-fluorophenyl)-3,3-difluorobutane-1-sulfonamide] is 0.3 nM.
Consider `CC(C)n1c(=O)c(-c2ccc(NS(=O)(=O)CC3CCC(F)(F)CC3)c(F)c2)nc2cnc(N[C@H]3CC[C@H](N(C)C)CC3)nc21` [Example 271, 1-(4,4-Difluorocyclohexyl)-N-[4-[2-[[4-(dimethylamino)cyclohexyl]amino]-8-isopropyl-7-oxo-pteridin-6-yl]-2-fluoro-phenyl]methanesulfonamide], for which the IC50 turned out to be 0.2 nM.

Source of the values: US12344603B2 (Genentech, Inc., priority 2020, dated 2025).
